Drawing on US20240269304A1, “BCL-XL INHIBITOR ANTIBODY-DRUG CONJUGATES AND METHODS OF USE THEREOF” (Novartis AG, priority 2020, published 2024), this text covers IC50 for 17 compounds.

Read-outs that look alike come from different tables or passages of the source.

The test relates to H1650 cells. The test is described as follows: CellTiterGlo (CTG) cell viability, 3D, 120 h, H1650 (Example 8). It counts as cell-based, human. (In ATP-based viability assays light output follows the ATP content of the culture.)
Setting [1] is: Homo sapiens, NCI-H1650, H1650 3D, experiment n1, read-out: H1650 3D CTG IC50 n1.
[2] abbreviates: Homo sapiens, NCI-H1650, H1650 3D, experiment n2, read-out: H1650 3D CTG IC50 n2.
The mark [3] stands for this setting: Homo sapiens, NCI-H1650, H1650 3D, mean of n1 and n2, read-out: H1650 3D CTG IC50 Mean of n1 and n2.
The mark [4] stands for this setting: H1650 3D, experiment n1, read-out: H1650 3D CTG IC50 n1.
The mark [5] stands for this setting: H1650 3D, experiment n2, read-out: H1650 3D CTG IC50 n2.
[6] abbreviates: H1650 3D, mean of n1 and n2, read-out: H1650 3D CTG IC50 Mean of n1 and n2.

As to `Cc1c(Nc2nc3ccccc3s2)nnc2c1CCCN2c1nc(C(=O)O)c(CCCOc2ccc(C#CCN(C)C)cc2)s1` [P28, 2-[3-(1,3-benzothiazol-2-ylamino)-4-methyl-6,7-dihydro-5H-pyrido[2,3-c]pyridazin-8-yl]-5-[3-[4-[3-(dimethylamino)prop-1-ynyl]phenoxy]propyl]thiazole-4-carboxylic acid], the IC50 (in general, the point on the concentration scale where inhibition reaches its midpoint) runs as follows: under setting [1], 0.39 nM; under setting [2], 0.18 nM; under setting [3], 0.29 nM.

`Cc1cc(N(C)c2nc(C(=O)[O-])c(CCCOc3ccc(C#CC[N+](C)(C)Cc4ccc(NC(=O)[C@H](C)NC(=O)[C@@H](NC(=O)CCOCCN5C(=O)CC(C)C5=O)C(C)C)cc4CC[C@@H]4O[C@H](C(=O)O)[C@@H](O)[C@H](O)[C@H]4O)cc3F)s2)nnc1Nc1nc2ccccc2s1` (stereo partly drawn) [Ab C - L106A-P2]: the IC50 is 1 nM under setting [4], 0.7 nM under setting [5] and 0.85 nM under setting [6].

For the compound `Cc1c(Nc2nc3ccccc3s2)nnc2c1CCCN2c1nc(C(=O)[O-])c(CCCOc2ccc(C#CCN3CC[N+](C)(Cc4ccc(NC(=O)[C@H](CCCNC(N)=O)NC(=O)[C@@H](NC(=O)CCOCCN5C(=O)CC(C)C5=O)C(C)C)cc4)CC3)cc2F)s1` (stereo partly drawn) [Ab C - L9A-P10], the IC50 stood at 0.3 nM under setting [4], 0.5 nM under setting [5] and 0.4 nM under setting [6].

Regarding `COCCCNCCOC12CC3(C)CC(C)(CC(Cn4ncc(-c5ccc(N(C)c6cc(C)c(Nc7nc8ccccc8s7)nn6)nc5C(=O)O)c4C)(C3)C1)C2` [P29, 6-[[6-(1,3-benzothiazol-2-ylamino)-5-methyl-pyridazin-3-yl]-methyl-amino]-3-[1-[[3-[2-(3-methoxypropylamino)ethoxy]-5,7-dimethyl-1-adamantyl]methyl]-5-methyl-pyrazol-4-yl]pyridine-2-carboxylic acid], the IC50 is, setting by setting: under setting [1], 0.57 nM; under setting [2], 0.47 nM; under setting [3], 0.52 nM.

As to `Cc1c(Nc2nc3ccccc3s2)nnc2c1CCCN2c1ccc(-c2cnn(C[C@]34C[C@]5(C)C[C@](C)(C3)C[C@@](OCCN3CCN(C(C)C)CC3)(C5)C4)c2C)c(C(=O)O)n1` [P32, 6-[3-(1,3-benzothiazol-2-ylamino)-4-methyl-6,7-dihydro-5H-pyrido[2,3-c]pyridazin-8-yl]-3-[1-[[3-[2-(4-isopropylpiperazin-1-yl)ethoxy]-5,7-dimethyl-1-adamantyl]methyl]-5-methyl-pyrazol-4-yl]pyridine-2-carboxylic acid], the half-inhibitory concentration (IC50) by setting is: under setting [1], 0.24 nM; under setting [2], 0.22 nM; under setting [3], 0.23 nM.

Regarding `Cc1c(Nc2nc3ccccc3s2)nnc2c1CCCN2c1ccc(-c2cnn(CC34CC5(C)CC(C)(CC(CCCNCCCCO)(C5)C3)C4)c2C)c(C(=O)O)n1` [P72, 6-[3-(1,3-benzothiazol-2-ylamino)-4-methyl-6,7-dihydro-5H-pyrido[2,3-c]pyridazin-8-yl]-3-[1-[[3-[3-(4-hydroxybutylamino)propyl]-5,7-dimethyl-1-adamantyl]methyl]-5-methyl-pyrazol-4-yl]pyridine-2-carboxylic acid], the IC50 under setting [1] worked out at 5.07 nM, the IC50 under setting [2] was determined as 5.57 nM and the IC50 under setting [3] was determined as 5.32 nM.

On to `Cc1c(Nc2nc3ccccc3s2)nnc2c1CCCN2c1ccc(-c2cnn(CC34CC5(C)CC(C)(CC(CCCN(C)CC(=O)O)(C5)C3)C4)c2C)c(C(=O)O)n1` [P55, 6-[3-(1,3-benzothiazol-2-ylamino)-4-methyl-6,7-dihydro-5H-pyrido[2,3-c]pyridazin-8-yl]-3-[1-[[3-[3-[carboxymethyl(methyl)amino]propyl]-5,7-dimethyl-1-adamantyl]methyl]-5-methyl-pyrazol-4-yl]pyridine-2-carboxylic acid], for which the IC50 reads like this: under setting [1], 6.15 nM; under setting [2], 6.88 nM; under setting [3], 6.51 nM.

As to `Cc1c(Nc2nc3ccccc3s2)nnc2c1CCCN2c1nc(C(=O)O)c(CCCOc2ccc(C#CCN3CCC(F)(F)CC3)cc2F)s1` [P15, 2-{3-[(1,3-Benzothiazol-2-yl)amino]-4-methyl-5H,6H,7H,8H-pyrido[2,3-c]pyridazin-8-yl}-5-(3-{4-[3-(4,4-difluoropiperidin-1-yl)prop-1-yn-1-yl]-2-fluorophenoxy}propyl)-1,3-thiazole-4-carboxylic acid], the IC50 came out at 0.98 nM under setting [1], 1.2 nM under setting [2] and 1.09 nM under setting [3].

Take `Cc1c(Nc2nc3ccccc3s2)nnc2c1CCCN2c1ccc(-c2cnn(CC34CC5(C)CC(C)(CC(CCCNCC(=O)O)(C5)C3)C4)c2C)c(C(=O)O)n1` [P53, 6-[3-(1,3-benzothiazol-2-ylamino)-4-methyl-6,7-dihydro-5H-pyrido[2,3-c]pyridazin-8-yl]-3-[1-[[3-[3-(carboxymethylamino)propyl]-5,7-dimethyl-1-adamantyl]methyl]-5-methyl-pyrazol-4-yl]pyridine-2-carboxylic acid]: the IC50 under setting [1] was found to be 37.7 nM, the IC50 under setting [2] was 35 nM and the IC50 under setting [3] came to 36.4 nM.

`COCCCNCCCC12CC3(C)CC(C)(C1)CC(Cn1ncc(-c4ccc(N5CCCc6c5nnc(Nc5nc7ccccc7s5)c6C)nc4C(=O)O)c1C)(C3)C2` [P51, 6-[3-(1,3-benzothiazol-2-ylamino)-4-methyl-6,7-dihydro-5H-pyrido[2,3-c]pyridazin-8-yl]-3-[1-[[3-[3-(3-methoxypropylamino)propyl]-5,7-dimethyl-1-adamantyl]methyl]-5-methyl-pyrazol-4-yl]pyridine-2-carboxylic acid]: the half-inhibitory concentration (IC50) under setting [1] stood at 1.97 nM, the IC50 under setting [2] came to 2.83 nM and the IC50 under setting [3] is 2.4 nM.

On to `Cc1c(Nc2nc3ccccc3s2)nnc2c1CCCN2c1ccc(-c2cnn(CC34CC5(C)CC(C)(CC(CCCN(C)CCCO)(C5)C3)C4)c2C)c(C(=O)O)n1` [P68, 6-[3-(1,3-benzothiazol-2-ylamino)-4-methyl-6,7-dihydro-5H-pyrido[2,3-c]pyridazin-8-yl]-3-[1-[[3-[3-[3-hydroxypropyl(methyl)amino]propyl]-5,7-dimethyl-1-adamantyl]methyl]-5-methyl-pyrazol-4-yl]pyridine-2-carboxylic acid], for which the IC50 under setting [1] amounted to 0.84 nM, the IC50 under setting [2] was 0.68 nM and the IC50 under setting [3] turned out to be 0.76 nM.

Turning to `Cc1c(Nc2nc3ccc(F)cc3s2)nnc2c1CCCN2c1ccc(-c2cnn(CC34CC5(C)CC(C)(C3)CC(OCCN3CCCC3)(C5)C4)c2C)c(C(=O)O)n1` [P65, 3-[1-[[3,5-dimethyl-7-(2-pyrrolidin-1-ylethoxy)-1-adamantyl]methyl]-5-methyl-pyrazol-4-yl]-6-[3-[(6-fluoro-1,3-benzothiazol-2-yl)amino]-4-methyl-6,7-dihydro-5H-pyrido[2,3-c]pyridazin-8-yl]pyridine-2-carboxylic acid], the IC50 reads like this: under setting [1], 1 nM; under setting [2], 1.2 nM; under setting [3], 1.1 nM.

For the compound `Cc1cc(N(C)c2nc(C(=O)O)c(CCCOc3ccc(C#CC[N+](C)(C)Cc4ccc(NC(=O)[C@H](CCCNC(N)=O)NC(=O)[C@@H](NC(=O)CCOCCN5C(=O)CC(C)C5=O)C(C)C)cc4)cc3F)s2)nnc1Nc1nc2ccccc2s1` (stereo partly drawn) [Ab C - L9A-P2], the IC50 under setting [4] was found to be 4.2 nM, the IC50 under setting [5] stood at 7 nM and the IC50 under setting [6] is 5.6 nM.

Regarding `Cc1c(Nc2nc3ccccc3s2)nnc2c1CCCN2c1ccc(-c2cnn(CC34CC5(C)CC(C)(C3)CC(OCCN3CCCCC3)(C5)C4)c2C)c(C(=O)O)n1` [P38, 6-[3-(1,3-benzothiazol-2-ylamino)-4-methyl-6,7-dihydro-5H-pyrido[2,3-c]pyridazin-8-yl]-3-[1-[[3,5-dimethyl-7-[2-(1-piperidyl)ethoxy]-1-adamantyl]methyl]-5-methyl-pyrazol-4-yl]pyridine-2-carboxylic acid], the IC50 by setting is: under setting [1], 0.19 nM; under setting [2], 0.33 nM; under setting [3], 0.26 nM.

As for `Cc1c(Nc2nc3ccccc3s2)nnc2c1CCCN2c1ccc(-c2cnn(C[C@]34C[C@]5(C)C[C@](C)(C3)C[C@@](OCCN3CCOCC3)(C5)C4)c2C)c(C(=O)O)n1` [P39, 6-[3-(1,3-benzothiazol-2-ylamino)-4-methyl-6,7-dihydro-5H-pyrido[2,3-c]pyridazin-8-yl]-3-[1-[[3,5-dimethyl-7-(2-morpholinoethoxy)-1-adamantyl]methyl]-5-methyl-pyrazol-4-yl]pyridine-2-carboxylic acid], the 50% inhibitory concentration (IC50) is 0.21 nM under setting [1], 0.34 nM under setting [2] and 0.28 nM under setting [3].

Turning to `Cc1c(Nc2nc3ccccc3s2)nnc2c1CCCN2c1ccc(-c2cnn(C[C@]34C[C@]5(C)C[C@](C)(C3)C[C@@](OCCN(C)CCO)(C5)C4)c2C)c(C(=O)O)n1` [P35, 6-[3-(1,3-benzothiazol-2-ylamino)-4-methyl-6,7-dihydro-5H-pyrido[2,3-c]pyridazin-8-yl]-3-[1-[[3-[2-[2-hydroxyethyl(methyl)amino]ethoxy]-5,7-dimethyl-1-adamantyl]methyl]-5-methyl-pyrazol-4-yl]pyridine-2-carboxylic acid], the IC50 runs as follows: under setting [1], 0.23 nM; under setting [2], 0.27 nM; under setting [3], 0.25 nM.

Turning to `Cc1c(Nc2nc3ccccc3s2)nnc2c1CCCN2c1ccc(-c2cnn(C[C@]34C[C@]5(C)C[C@](C)(C3)C[C@@](OCCNC(CO)CO)(C5)C4)c2C)c(C(=O)O)n1` [P24, 6-[3-(1,3-benzothiazol-2-ylamino)-4-methyl-6,7-dihydro-5H-pyrido[2,3-c]pyridazin-8-yl]-3-[1-[[3-[2-[[2-hydroxy-1-(hydroxymethyl)ethyl]amino]ethoxy]-5,7-dimethyl-1-adamantyl]methyl]-5-methyl-pyrazol-4-yl]pyridine-2-carboxylic acid], the IC50 under setting [1] was determined as 2.1 nM, the IC50 under setting [2] came to 1.8 nM and the IC50 under setting [3] turned out to be 1.95 nM.
